Measurements published in publication PMC3368886, “ATPase Cycle and DNA Unwinding Kinetics of RecG Helicase” (PLoS ONE, 2012).

Columns and labels:
Format in all cases: biochemical
RecG⋅DNA(A40:B40) = biological target: T1, RecG⋅DNA(A40:B40) (Thermotoga maritima, UniProt Q9WY48); assay: Pi release with excess ATP, global fit to ATPase cycle model; conditions: 0.5 µM RecG, 2.5 µM DNA (A40:B40)
T1 construct: made in house
T1 sequence (Q9WY48 1-780): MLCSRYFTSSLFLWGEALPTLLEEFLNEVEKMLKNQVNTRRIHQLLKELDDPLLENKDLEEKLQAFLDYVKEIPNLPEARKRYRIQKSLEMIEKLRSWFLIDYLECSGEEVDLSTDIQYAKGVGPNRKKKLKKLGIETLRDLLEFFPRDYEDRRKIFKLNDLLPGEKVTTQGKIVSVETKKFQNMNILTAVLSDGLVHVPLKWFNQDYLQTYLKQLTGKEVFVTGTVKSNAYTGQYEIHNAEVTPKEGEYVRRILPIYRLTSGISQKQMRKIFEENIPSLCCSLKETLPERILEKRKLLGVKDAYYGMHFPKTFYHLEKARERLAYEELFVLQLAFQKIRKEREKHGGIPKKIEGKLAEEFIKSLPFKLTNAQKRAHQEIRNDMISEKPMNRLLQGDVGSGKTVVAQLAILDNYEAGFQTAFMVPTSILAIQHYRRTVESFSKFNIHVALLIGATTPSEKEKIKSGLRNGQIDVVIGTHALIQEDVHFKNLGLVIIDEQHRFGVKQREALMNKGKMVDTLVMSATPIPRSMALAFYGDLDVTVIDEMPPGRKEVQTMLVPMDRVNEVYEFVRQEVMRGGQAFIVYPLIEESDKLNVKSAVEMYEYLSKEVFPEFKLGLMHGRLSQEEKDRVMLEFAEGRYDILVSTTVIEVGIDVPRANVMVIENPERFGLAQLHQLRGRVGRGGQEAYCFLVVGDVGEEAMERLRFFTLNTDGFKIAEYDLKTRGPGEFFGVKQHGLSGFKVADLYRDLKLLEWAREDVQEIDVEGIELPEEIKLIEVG
Method: The rate of Pi release was measured after mixing RecG⋅DNA with excess ATP, using the phosphate biosensor, in the stopped-flow apparatus (Figure 6A). […] Both phases are dependent on ATP concentration. The lag decreased, while the rate of the linear phase increased with greater concentrations of ATP. The lag is due to the steps prior to Pi release, namely ATP binding and cleavage. […] Such a burst phase would result from the relatively fast Pi release of the initial cycle before the Pi release of subsequent cycles was limited by slow ADP release.
Figure 6 ATPase cycle measurements with unmodified nucleotides. (A) Phosphate measurements at different ATP concentrations. 0.5 µM RecG, premixed with 2.5 µM DNA (A40:B40), was then mixed in the stopped-flow apparatus with ATP at the micromolar concentrations shown, in the presence of 10 µM MDCC-PBP. (B) Best fit time courses of the Pi release, based upon a model of the ATPase cycle, as described in the text. Curves were obtained by glogal fitting the curves at different concentrations, using Global kinetic Explorer. Note that in comparison, the experimental time courses show a small transient of Pi at times <100 ms. This is likely to be due to free Pi and this behavior, overlaying a lag, has been observed previously in multi-turnover measurements. (C) ADP Release kinetics. 10 µM RecG⋅DNA (A40∶B40) was pre-bound with 10 µM ADP before mixing with an excess of mantADP (20 µM): these concentrations are final in the mixing chamber. The increase in fluorescence was fitted to single exponential giving the dissociation rate constant of 11.4 (±2.2) s^−1. Rate constants were independent of mantADP concentration in the range of 20–80 µM.
A scheme of the ATPase cycle (Figure 2) was used to simulate the data to assess the individual rate constants. […] The simulated traces (Figure 6B) were obtained from a global fit to the experimental data. This was done by allowing only the rate constants that have maximum influence on the curve shapes to vary. Cleavage and Pi release were assumed to be irreversible. For the fit, Pi release was fixed at 100 s^–1, ADP release at 12.5 s^–1, as the fitting was relatively insensitive to changes in these constants. […] The resulting best fit gave rate constants for ATP binding as 0.65 (±0.02) µM^−1s^−1, dissociation of ATP as 10.0 (±0.6) s^−1, cleavage as 7.1 (±0.1) s^−1. The fit gave a cleavage rate constant similar to the value of k cat from the steady-state analysis (Table 1a). The rate constant for ADP release may be only slightly larger than that of cleavage step.
Data were fitted to theoretical equations using the stopped-flow software or Grafit. Kinetic simulations were performed using Berkeley Madonna (Version 8.3, University of California at Berkeley) and using Global Kinetic Explorer (Kintek). […]

RecG [1] = biological target: T2, RecG (Thermotoga maritima, UniProt Q9WY48); assay: Steady-state ATPase rate measurements with phosphate biosensor MDCC-PBP; conditions: no DNA, 20°C, 10 nM RecG
T2 construct: made in house
T2 sequence (Q9WY48 1-780): T1 sequence (Q9WY48 1-780)

RecG [2] = biological target: T2, RecG; assay: mantATP cleavage (acid quench) and Pi release in the absence of DNA
Method: As done for the RecG⋅DNA complex, measurements were also taken with an excess of RecG over mantATP (Figure S3B). A large, relative rapid, increase in mant fluorescence was observed followed by a small gradual increase. The rate constants are consistent with those at excess mantATP. Under the same conditions of excess RecG over mantATP, mantATP cleavage (acid quench) and Pi release were measured (Figure S3B). […] The cleavage step rate constant was 4×10^−4 s^−1, ∼10^3 slower than in the presence of DNA. […] The cleavage step was greatly stimulated by DNA.
Supplementary file pone.0038270.s003.tif: Figure S3 Kinetic measurements in the absence of DNA. (A) Association kinetics with mantATP. Dependence of the observed rate constants on mantATP concentration from mixing 0.5 µM RecG with excess mantATP under the same conditions as Figure 3. Points shown are typically an average of three individual measurements. The best linear fit gives a slope of 0.4 (±0.15) µM^−1 s^−1 and intercept 1.7 (±0.6) s^−1. (B) Fluorescence trace upon mixing 2.5 µM RecG with 0.5 µM mantATP under the conditions of Figure 4. […] Note that as the fluorescence slowly increases beyond the time course, it was not possible to calibrate the ordinate. […] Pi release kinetics (continuous line) were measured for the same mixture containing 10 µM MDCC-PBP. […]

RecG [3] = biological target: T2, RecG; assay: Phosphate-water oxygen exchange during hydrolysis; conditions: 20°C, Table 2 summary

SMILES | cleavage (global fit) (RecG⋅DNA(A40:B40)) | dissociation of ATP (global fit) (RecG⋅DNA(A40:B40)) | rate constant for ATP binding (global fit) (RecG⋅DNA(A40:B40)) | K m (RecG [1]) | k cat (RecG [1]) | cleavage step rate constant (RecG [2]; absence of DNA, excess RecG over mantATP) [s⁻¹] | cleavage slower than in the presence of DNA (RecG [2]; absence vs presence of DNA) | k −2 (reverse of cleavage) (RecG [3]) [s⁻¹]
Nc1ncnc2c1ncn2[C@@H]1O[C@H](COP(=O)(O)OP(=O)(O)OP(=O)(O)O)[C@@H](O)[C@H]1O [ATP] | 7.1 (±0.1) s^−1 | 10.0 (±0.6) s^−1 | 0.65 (±0.02) µM^−1s^−1 | 7.5 (±3.1) µM | 0.2 (±0.1) s^−1 |  |  | 
CNc1ccccc1C(=O)O[C@H]1[C@@H](O)[C@H](n2cnc3c(N)ncnc32)O[C@@H]1COP(=O)(O)OP(=O)(O)OP(=O)(O)O [mantATP, 2′(3′)-O-(N-methylanthraniloyl)ATP] |  |  |  |  |  | 0.0004 | ~10^3 | <0.01
